From publication PMC3104491 (mBio, 2011)

T1: CTL843 (SAMHT, SAM/SAH transporter) (Chlamydia trachomatis, UniProt B0B8F4)
T1 sequence (B0B8F4 1-327): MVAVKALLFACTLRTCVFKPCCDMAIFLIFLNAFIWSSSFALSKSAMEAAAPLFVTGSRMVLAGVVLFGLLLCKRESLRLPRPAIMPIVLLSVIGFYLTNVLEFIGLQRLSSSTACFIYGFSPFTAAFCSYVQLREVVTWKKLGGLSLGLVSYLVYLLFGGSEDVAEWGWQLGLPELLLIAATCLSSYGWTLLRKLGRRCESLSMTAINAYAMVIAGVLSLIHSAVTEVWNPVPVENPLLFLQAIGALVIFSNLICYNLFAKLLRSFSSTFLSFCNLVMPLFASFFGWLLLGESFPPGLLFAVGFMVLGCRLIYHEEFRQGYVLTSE


Key:
[1] = molecular target: T1, CTL843 (SAMHT, SAM/SAH transporter); experiment: inhibition of […]SAM uptake in whole E. coli cells expressing CTL843; assay type: cell-based
[2] = substrate: C[S@@+](CC[C@H](N)C(=O)O)C[C@H]1O[C@@H](n2cnc3c(N)ncnc32)[C@H](O)[C@@H]1O; experiment: cells, lysate or membranes

Molecule	Ki [1]	Km [2]
Nc1ncnc2c1ncn2[C@@H]1O[C@H](CSCC[C@H](N)C(=O)O)[C@@H](O)[C@H]1O [SAH, S-Adenosyl-L-homocysteine]	4.12 µM	–
CTL843 (SAMHT, SAM/SAH transporter) (Chlamydia trachomatis L2/434/Bu) (protein) MVAVKALLFACTLRTCVFKPCCDMAIFLIFLNAFIWSSSFALSKSAMEAAAPLFVTGSRMVLAGVVLFGLLLCKRESLRLPRPAIMPIVLLSVIGFYLTNVLEFIGLQRLSSSTACFIYGFSPFTAAFCSYVQLREVVTWKKLGGLSLGLVSYLVYLLFGGSEDVAEWGWQLGLPELLLIAATCLSSYGWTLLRKLGRRCESLSMTAINAYAMVIAGVLSLIHSAVTEVWNPVPVENPLLFLQAIGALVIFSNLICYNLFAKLLRSFSSTFLSFCNLVMPLFASFFGWLLLGESFPPGLLFAVGFMVLGCRLIYHEEFRQGYVLTSE	–	5.88 ± 0.11 µM
